Counter-ions that a name gives are not always drawn. Values belong to the compound of their own block, whether it stands above or below them.
Assay: Solution state stability of the hemi calcium salt of Formula I at various pH conditions
Assay type: physicochemical
Protocol: Solution state stability studies were performed on 7-[2-(4-fluorophenyl)-5-isopropyl-3-phenyl-4-[(4-hydroxymethylphenylamino) carbonyl]-pyrrol- 1-yl]-3,5-dihydroxy-heptanoic acid by solubilizing the hemi calcium salt of Formula I at a range of pH conditions and storing the solution for one or two weeks under different temperature conditions.

pH at which the compound is stable in solution (conclusion from Table 1, more particularly pH 4.5 to pH 12): ≥ 4.5
Structure (SMILES): CC(C)c1c(C(=O)Nc2ccc(CO)cc2)c(-c2ccccc2)c(-c2ccc(F)cc2)n1CCC(O)CC(O)CC(=O)O (centres unmarked) [7-[2-(4-fluorophenyl)-5-isopropyl-3-phenyl-4-[(4-hydroxymethylphenylamino)carbonyl]-pyrrol-1-yl]-3,5-dihydroxy-heptanoic acid]

Drug Content (pH 2.0 Buffer, 1 week, 2-8 °C): 0.21 mg/mL
Drug Content (pH 2.0 Buffer, 1 week, 25 °C): 0.22 mg/mL
Drug Content (pH 2.0 Buffer, 1 week, 50 °C): 0.14 mg/mL
Drug Content (pH 2.0 Buffer, 2 Weeks, 2-8 °C): 0.19 mg/mL
Drug Content (pH 2.0 Buffer, 2 Weeks, 25 °C): 0.18 mg/mL
Drug Content (pH 2.0 Buffer, 2 Weeks, 50 °C): 0.09 mg/mL
Drug Content (pH 2.0 Buffer, Initial): 0.42 mg/mL
Drug Content (pH 4.5 Buffer, 1 week, 2-8 °C): 0.50 mg/mL
Drug Content (pH 4.5 Buffer, 1 week, 25 °C): 0.50 mg/mL
Drug Content (pH 4.5 Buffer, 1 week, 50 °C): 0.43 mg/mL
Drug Content (pH 4.5 Buffer, 2 Weeks, 2-8 °C): 0.50 mg/mL
Drug Content (pH 4.5 Buffer, 2 Weeks, 25 °C): 0.48 mg/mL
Drug Content (pH 4.5 Buffer, 2 Weeks, 50 °C): 0.38 mg/mL
Drug Content (pH 4.5 Buffer, Initial): 0.51 mg/mL
Drug Content (pH 5.5 Buffer, 1 week, 2-8 °C): 0.50 mg/mL
Drug Content (pH 5.5 Buffer, 1 week, 25 °C): 0.50 mg/mL
Drug Content (pH 5.5 Buffer, 1 week, 50 °C): 0.45 mg/mL
Drug Content (pH 5.5 Buffer, 2 weeks, 2-8 °C): 0.50 mg/mL
Drug Content (pH 5.5 Buffer, 2 weeks, 25 °C): 0.48 mg/mL
Drug Content (pH 5.5 Buffer, 2 weeks, 50 °C): 0.40 mg/mL
Drug Content (pH 5.5 Buffer, Initial): 0.50 mg/mL
Drug Content (pH 7.5 Buffer, 1 week, 2-8 °C): 0.50 mg/mL
Drug Content (pH 7.5 Buffer, 1 week, 25 °C): 0.50 mg/mL
Drug Content (pH 7.5 Buffer, 1 week, 50 °C): 0.45 mg/mL
Drug Content (pH 7.5 Buffer, 2 Weeks, 2-8 °C): 0.49 mg/mL
Drug Content (pH 7.5 Buffer, 2 Weeks, 25 °C): 0.49 mg/mL
Drug Content (pH 7.5 Buffer, 2 Weeks, 50 °C): 0.37 mg/mL
Drug Content (pH 7.5 Buffer, Initial): 0.50 mg/mL
Drug Content (pH 9.0 Buffer, 1 week, 2-8 °C): 0.49 mg/mL
Drug Content (pH 9.0 Buffer, 1 week, 25 °C): 0.49 mg/mL
Drug Content (pH 9.0 Buffer, 1 week, 50 °C): 0.45 mg/mL
Drug Content (pH 9.0 Buffer, 2 Weeks, 2-8 °C): 0.45 mg/mL
Drug Content (pH 9.0 Buffer, 2 Weeks, 25 °C): 0.47 mg/mL
Drug Content (pH 9.0 Buffer, 2 Weeks, 50 °C): 0.42 mg/mL
Drug Content (pH 9.0 Buffer, Initial): 0.49 mg/mL
Drug Content (pH 10.0 Buffer, 1 week, 2-8 °C): 0.49 mg/mL
Drug Content (pH 10.0 Buffer, 1 week, 25 °C): 0.49 mg/mL
Drug Content (pH 10.0 Buffer, 1 week, 50 °C): 0.45 mg/mL
Drug Content (pH 10.0 Buffer, 2 Weeks, 2-8 °C): 0.49 mg/mL
Drug Content (pH 10.0 Buffer, 2 Weeks, 25 °C): 0.47 mg/mL
Drug Content (pH 10.0 Buffer, 2 Weeks, 50 °C): 0.44 mg/mL
Drug Content (pH 10.0 Buffer, Initial): 0.49 mg/mL
Drug Content (pH 12.0 Buffer, 1 week, 2-8 °C): 0.49 mg/mL
Drug Content (pH 12.0 Buffer, 1 week, 25 °C): 0.49 mg/mL
Drug Content (pH 12.0 Buffer, 1 week, 50 °C): 0.45 mg/mL
Drug Content (pH 12.0 Buffer, 2 Weeks, 2-8 °C): 0.49 mg/mL
Drug Content (pH 12.0 Buffer, 2 Weeks, 25 °C): 0.48 mg/mL
Drug Content (pH 12.0 Buffer, 2 Weeks, 50 °C): 0.44 mg/mL
Drug Content (pH 12.0 Buffer, Initial): 0.49 mg/mL
Structure (SMILES): CC(C)c1c(C(=O)Nc2ccc(CO)cc2)c(-c2ccccc2)c(-c2ccc(F)cc2)n1CCC(O)CC(O)CC(=O)O (centres unmarked) [hemi calcium salt of Formula I, 7-[2-(4-fluorophenyl)-5-isopropyl-3-phenyl-4-[(4-hydroxymethylphenylamino)carbonyl]-pyrrol-1-yl]-3,5-dihydroxy-heptanoic acid hemicalcium salt]
